Test results reported in patent US20220033397A1, “PHARMACEUTICAL COMPOUNDS AND THEIR USE AS INHIBITORS OF UBIQUITIN SPECIFIC PROTEASE 19 (USP19)” (ALMAC DISCOVERY LIMITED, priority 2018, published 2022).

What follows are compounds tested against T1, Full-length USP19 (Homo sapiens, UniProt O94966) (assay: USP19 fluorescence polarisation (FP) homogeneous assay with Ubiquitin-Lys-TAMRA substrate). Conditions: 2.5 nM USP19, 30 min pre-incubation, average of at least two duplicate experiments.
T1 construct: Full-length USP19 was purchased from Boston Biochem (E-576); purchased Boston Biochem E-576
T1 sequence (O94966 1-1318): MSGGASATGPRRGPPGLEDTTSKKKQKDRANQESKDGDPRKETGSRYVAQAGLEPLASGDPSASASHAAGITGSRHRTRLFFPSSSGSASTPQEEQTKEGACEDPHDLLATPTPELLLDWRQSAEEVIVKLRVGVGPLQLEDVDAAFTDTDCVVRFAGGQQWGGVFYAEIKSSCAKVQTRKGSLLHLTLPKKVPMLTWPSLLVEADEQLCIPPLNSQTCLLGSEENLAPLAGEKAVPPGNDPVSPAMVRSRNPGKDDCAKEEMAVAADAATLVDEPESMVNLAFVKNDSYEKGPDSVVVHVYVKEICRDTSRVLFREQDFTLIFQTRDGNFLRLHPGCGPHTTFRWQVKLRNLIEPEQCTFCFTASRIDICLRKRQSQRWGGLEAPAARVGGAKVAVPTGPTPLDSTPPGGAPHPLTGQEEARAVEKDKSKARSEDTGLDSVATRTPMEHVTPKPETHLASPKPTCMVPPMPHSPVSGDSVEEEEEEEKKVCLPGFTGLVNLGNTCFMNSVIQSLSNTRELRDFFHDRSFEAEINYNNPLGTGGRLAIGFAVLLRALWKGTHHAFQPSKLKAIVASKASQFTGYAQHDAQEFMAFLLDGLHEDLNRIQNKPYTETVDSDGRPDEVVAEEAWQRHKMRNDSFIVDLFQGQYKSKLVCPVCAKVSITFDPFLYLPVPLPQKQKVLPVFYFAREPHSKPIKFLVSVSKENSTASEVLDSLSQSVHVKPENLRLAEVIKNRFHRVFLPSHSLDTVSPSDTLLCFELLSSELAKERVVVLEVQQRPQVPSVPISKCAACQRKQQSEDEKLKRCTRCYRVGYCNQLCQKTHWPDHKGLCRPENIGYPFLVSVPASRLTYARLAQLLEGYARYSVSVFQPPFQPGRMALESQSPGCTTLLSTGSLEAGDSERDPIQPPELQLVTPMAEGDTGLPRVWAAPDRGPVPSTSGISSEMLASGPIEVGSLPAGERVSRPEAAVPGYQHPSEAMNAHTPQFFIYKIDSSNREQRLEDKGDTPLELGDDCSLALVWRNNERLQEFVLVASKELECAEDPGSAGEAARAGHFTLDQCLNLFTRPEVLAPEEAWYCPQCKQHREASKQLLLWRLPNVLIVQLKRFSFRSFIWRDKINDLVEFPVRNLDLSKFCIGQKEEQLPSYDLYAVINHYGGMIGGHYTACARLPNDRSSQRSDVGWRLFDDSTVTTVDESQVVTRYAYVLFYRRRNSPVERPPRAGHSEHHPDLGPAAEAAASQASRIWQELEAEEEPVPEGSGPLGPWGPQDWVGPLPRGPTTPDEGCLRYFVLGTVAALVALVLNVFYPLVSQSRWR
Format: biochemical
Procedure, shortened: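 Full-length USP19 preincubated 30 min at RT with inhibitor (200 μM to 2 μM series, 8–18 points) before adding 500 nM Ubiquitin-Lys-TAMRA substrate.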

`O=C(N[C@H](c1ccccc1)C(F)(F)F)N1CC[C@@](O)(Cn2ccc(-c3ccccc3)cc2=O)C2(CCCC2)C1` [Example 309, (S)-10-Hydroxy-10-((2-oxo-4-phenylpyridin-1(2H)-yl)methyl)-N—((R)-2,2,2-trifluoro-1-phenylethyl)-7-azaspiro[4.5]decane-7-carboxamide] and `O=C(N1CC[C@@](O)(Cn2cnc(-c3ccccc3)cc2=O)C2(CCCC2)C1)N1CCN(CC(F)(F)F)C[C@H]1c1ccccc1` [Example 323, 3-(((S)-10-Hydroxy-7-((R)-2-phenyl-4-(2,2,2-trifluoroethyl)piperazine-1-carbonyl)-7-azaspiro[4.5]decan-10-yl)methyl)-6-phenylpyrimidin-4(3H)-one] cannot be ordered by IC50: less than 500 nM for the first, less than 500 nM for the second.

`CC1(C)CN(C(=O)N2CCOC[C@H]2c2ccccc2)CC[C@@]1(O)Cn1cnc(-c2ccccc2)cc1=O` [Example 310, 3-(((S)-4-Hydroxy-3,3-dimethyl-1-((R)-3-phenylmorpholine-4-carbonyl)piperidin-4-yl)methyl)-6-phenylpyrimidin-4(3H)-one] and `CC1(C)CN(C(=O)N2CCNC[C@H]2c2ccccc2)CC[C@@]1(O)Cn1cnc(-c2ccccc2)cc1=O` [Example 322, 3-(((S)-4-Hydroxy-3,3-dimethyl-1-((R)-2-phenylpiperazine-1-carbonyl)piperidin-4-yl)methyl)-6-phenylpyrimidin-4(3H)-one] cannot be ordered by IC50: less than 500 nM for the first, less than 500 nM for the second.

First: O=C(NCC1(F)CC1)N1CC[C@@](O)(Cn2cnc(-c3ccccc3)cc2=O)C2(CCCC2)C1 [Example 311, (S)—N-((1-Fluorocyclopropyl)methyl)-10-hydroxy-10-((6-oxo-4-phenylpyrimidin-1(6H)-yl)methyl)-7-azaspiro[4.5]decane-7-carboxamide]
Second: O=C(NCC1(F)CCC1)N1CC[C@@](O)(Cn2cnc(-c3ccccc3)cc2=O)C2(CCCC2)C1 [Example 312, (S)—N-((1-Fluorocyclobutyl)methyl)-10-hydroxy-10-((6-oxo-4-phenylpyrimidin-1(6H)-yl)methyl)-7-azaspiro[4.5]decane-7-carboxamide]
The IC50 of the first is lower: 500 to 5000 nM for the first, 5000 to 50000 nM for the second.

First: CN(CC1CC1)C(=O)N1CC[C@@](O)(Cn2cnc(-c3ccccc3)cc2=O)C2(CCCC2)C1 [Example 313, (S)—N-(Cyclopropylmethyl)-10-hydroxy-N-methyl-10-((6-oxo-4-phenylpyrimidin-1(6H)-yl)methyl)-7-azaspiro[4.5]decane-7-carboxamide]
Second: O=C(N1CC[C@@](O)(Cn2cnc(-c3ccccc3)cc2=O)C2(CCCC2)C1)N1CCNC[C@H]1c1cccc(F)c1 [Example 320, 3-(((S)-7-((R)-2-(3-Fluorophenyl)piperazine-1-carbonyl)-10-hydroxy-7-azaspiro[4.5]decan-10-yl)methyl)-6-phenylpyrimidin-4(3H)-one]
The IC50 of the first is higher: 500 to 5000 nM for the first, less than 500 nM for the second.

`O=C(N1CC[C@@](O)(Cn2cnc(-c3ccccc3F)cc2=O)C2(CCCC2)C1)N1CCNC[C@H]1c1ccccc1` [Example 314, 6-(2-Fluorophenyl)-3-(((S)-10-hydroxy-7-((R)-2-phenylpiperazine-1-carbonyl)-7-azaspiro[4.5]decan-10-yl)methyl)pyrimidin-4(3H)-one] and `COc1ccccc1-c1cc(=O)n(C[C@]2(O)CCN(C(=O)N3CCNC[C@H]3c3ccccc3)CC23CCCC3)cn1` [Example 317, 3-(((S)-10-Hydroxy-7-((R)-2-phenylpiperazine-1-carbonyl)-7-azaspiro[4.5]decan-10-yl)methyl)-6-(2-methoxyphenyl)pyrimidin-4(3H)-one] cannot be ordered by IC50: less than 500 nM for the first, less than 500 nM for the second.

`O=C(N1CC[C@@](O)(Cn2cnc(-c3cccc(F)c3)cc2=O)C2(CCCC2)C1)N1CCNC[C@H]1c1ccccc1` [Example 315, 6-(3-Fluorophenyl)-3-(((S)-10-hydroxy-7-((R)-2-phenylpiperazine-1-carbonyl)-7-azaspiro[4.5]decan-10-yl)methyl)pyrimidin-4(3H)-one] and `O=C(N1CC[C@@](O)(Cn2cnc(-c3ccc(F)cc3)cc2=O)C2(CCCC2)C1)N1CCNC[C@H]1c1ccccc1` [Example 316, 6-(4-Fluorophenyl)-3-(((S)-10-hydroxy-7-((R)-2-phenylpiperazine-1-carbonyl)-7-azaspiro[4.5]decan-10-yl)methyl)pyrimidin-4(3H)-one] cannot be ordered by IC50: less than 500 nM for the first, less than 500 nM for the second.

`CN(C)c1cc(=O)n(C[C@]2(O)CCN(C(=O)N3CCNC[C@H]3c3ccccc3)CC23CCCC3)cn1` [Example 318, 6-(Dimethylamino)-3-(((S)-10-hydroxy-7-((R)-2-phenylpiperazine-1-carbonyl)-7-azaspiro[4.5]decan-10-yl)methyl)pyrimidin-4(3H)-one] and `CNc1cc(=O)n(C[C@]2(O)CCN(C(=O)N3CCNC[C@H]3c3ccccc3)CC23CCCC3)cn1` [Example 319, 3-(((S)-10-Hydroxy-7-((R)-2-phenylpiperazine-1-carbonyl)-7-azaspiro[4.5]decan-10-yl)methyl)-6-(methylamino)pyrimidin-4(3H)-one] cannot be ordered by IC50: less than 500 nM for the first, less than 500 nM for the second.

`O=C(N1CCC(O)(Cn2cnc(-c3ccccc3)cc2=O)C2(CCOCC2)C1)N1CCNC[C@H]1c1ccccc1` (stereo partly drawn) [Example 321, 3-((5-Hydroxy-2-((R)-2-phenylpiperazine-1-carbonyl)-9-oxa-2-azaspiro[5.5]undecan-5-yl)methyl)-6-phenylpyrimidin-4(3H)-one] and `O=C(N1CCC(O)(Cn2cnc(-c3ccccc3)cc2=O)C2(CCOCC2)C1)N1CCOC[C@H]1c1ccccc1` (stereo partly drawn) [Example 325, 3-((5-Hydroxy-2-((R)-3-phenylmorpholine-4-carbonyl)-9-oxa-2-azaspiro[5.5]undecan-5-yl)methyl)-6-phenylpyrimidin-4(3H)-one] cannot be ordered by IC50: less than 500 nM for the first, less than 500 nM for the second.

`COc1cc(=O)n(C[C@]2(O)CCN(C(=O)N3CCNC[C@H]3c3ccccc3)CC23CCCC3)cn1` [Example 324, 3-(((S)-10-Hydroxy-7-((R)-2-phenylpiperazine-1-carbonyl)-7-azaspiro[4.5]decan-10-yl)methyl)-6-methoxypyrimidin-4(3H)-one] and `O=C(N1CC[C@@](O)(Cn2ccc(Cl)cc2=O)C2(CCCC2)C1)N1CCNC[C@H]1c1ccccc1` [Example 326, 4-Chloro-1-(((S)-10-hydroxy-7-((R)-2-phenylpiperazine-1-carbonyl)-7-azaspiro[4.5]decan-10-yl)methyl)pyridin-2(1H)-one] cannot be ordered by IC50: less than 500 nM for the first, less than 500 nM for the second.

`O=C(N1CC[C@@](O)(Cn2ccc(C3CC3)cc2=O)C2(CCCC2)C1)N1CCNC[C@H]1c1ccccc1` [Example 327, 4-Cyclopropyl-1-(((S)-10-hydroxy-7-((R)-2-phenylpiperazine-1-carbonyl)-7-azaspiro[4.5]decan-10-yl)methyl)pyridin-2(1H)-one] and `O=C(N1CC[C@@](O)(Cn2ccc(N3CCCC3)cc2=O)C2(CCCC2)C1)N1CCNC[C@H]1c1ccccc1` [Example 330, 1-(((S)-10-Hydroxy-7-((R)-2-phenylpiperazine-1-carbonyl)-7-azaspiro[4.5]decan-10-yl)methyl)-4-(pyrrolidin-1-yl)pyridin-2(1H)-one] cannot be ordered by IC50: less than 500 nM for the first, less than 500 nM for the second.

`Cn1nccc1-c1ccn(C[C@]2(O)CCN(C(=O)N3CCNC[C@H]3c3ccccc3)CC23CCCC3)c(=O)c1` [Example 328, 1-(((S)-10-Hydroxy-7-((R)-2-phenylpiperazine-1-carbonyl)-7-azaspiro[4.5]decan-10-yl)methyl)-4-(1-methyl-1H-pyrazol-5-yl)pyridin-2(1H)-one] and `Cn1cc(-c2ccn(C[C@]3(O)CCN(C(=O)N4CCNC[C@H]4c4ccccc4)CC34CCCC4)c(=O)c2)cn1` [Example 329, 1-(((S)-10-Hydroxy-7-((R)-2-phenylpiperazine-1-carbonyl)-7-azaspiro[4.5]decan-10-yl)methyl)-4-(1-methyl-1H-pyrazol-4-yl)pyridin-2(1H)-one] cannot be ordered by IC50: less than 500 nM for the first, less than 500 nM for the second.

Compound `O=C(N1CCC(O)(Cn2cc(F)c(-c3ccccc3)cc2=O)C2(CCCC2)C1)N1CCNC[C@H]1c1ccccc1` (stereo partly drawn) [Example 331, 5-Fluoro-1-((10-hydroxy-7-((R)-2-phenylpiperazine-1-carbonyl)-7-azaspiro[4.5]decan-10-yl)methyl)-4-phenylpyridin-2(1H)-one] has an IC50 of less than 500 nM.
